Laboratory results as given in PMC4854315, “Discovery of a novel allosteric inhibitor-binding site in ERK5: comparison with the canonical kinase hinge ATP-binding site” (Acta Crystallographica. Section D, Structural Biology, 2016).

What was measured:
[1] = target: T1, recombinant human ERK5 (Homo sapiens, UniProt Q13164); assay: TR-FRET (LANCE Ultra) biochemical assay of ERK5 kinase activity; conditions: TR-FRET enzymatic assay, phosphorylated ERK5; read-out: ERK5 IC50
T1 construct: Catalytically active kinase domain of recombinant human ERK5 enzyme was purchased from Carna Biosciences; purchased Carna Biosciences
Method: Catalytically active kinase domain of recombinant human ERK5 enzyme was purchased from Carna Biosciences. […] The inhibitory potency of compounds against ERK5 was evaluated using the LANCE Ultra technology from PerkinElmer according to the manufacturer’s instructions. Briefly, 3 µl of different concentrations of ATP and 100 nM ULight-eIF4E-binding protein 1 (Thr37/46) peptide (Perkin-Elmer catalogue No. TRF0128) were incubated in the presence of serially diluted compound or DMSO control at room temperature in 384-well Greiner white polystyrene assay plates. The reaction was initiated by the addition of 3 µl of 10 nM kinase. The assay buffer consisted of 1 mM DTT, 10 mM MgCl2, 1 mM EGTA, 0.01%(v/v) Tween 20 in 50 mM HEPES pH 7.5. After 60 min incubation, the reaction was stopped by the addition of 6 µl stop/detection reagent mixture consisting of 20 mM EDTA and 4 nM Eu-anti-phospho-eIF4E-binding protein 1 (Thr37/46) antibody (PerkinElmer catalogue No. TRF0216) diluted in detection buffer. The plates were incubated for 1 h before the fluorescence was measured at 615 and 665 nm with an excitation wavelength of 320 nm using an EnVision Multilabel Reader from Perkin-Elmer in time-resolved fluorescence resonance energy transfer (TR-FRET) mode. The calculated signal ratio at 665/615 nm is proportional to the kinase activity. The concentration of compound producing 50% inhibition of the kinase activity (IC50) was calculated by using GraphPad Prism to fit the data to a symmetrical sigmoidal curve.

[2] = test system: ERK5; parameters: method as in Deng et al., 2013; conditions: Data retrieved from the literature; ref Deng et al., 2013; cited from earlier work

T1 sequence (Q13164 55-347 limits assumed): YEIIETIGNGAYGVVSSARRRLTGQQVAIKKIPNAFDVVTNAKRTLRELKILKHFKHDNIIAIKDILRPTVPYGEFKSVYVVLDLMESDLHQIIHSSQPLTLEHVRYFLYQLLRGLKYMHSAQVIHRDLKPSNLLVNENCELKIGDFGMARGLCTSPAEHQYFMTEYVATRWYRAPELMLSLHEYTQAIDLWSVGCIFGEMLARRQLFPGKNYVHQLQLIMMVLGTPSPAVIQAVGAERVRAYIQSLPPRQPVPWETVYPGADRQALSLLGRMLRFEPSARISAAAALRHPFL

With `CC(NC(=O)n1nc(N)nc1Nc1ccc(Cl)cc1)c1ccccc1` (stereo not drawn) [Compound 6] the IC50 [1] was > 10 µM.

For `CC(C)NC(=O)n1nc(N)nc1Nc1ccc(Cl)cc1` [Compound 4], the IC50 [1] was > 10 µM.

In the case of `COc1cc(C(=O)N2CCC(N3CCN(C)CC3)CC2)ccc1Nc1ncc2c(n1)N(C1CCCC1)c1ccccc1C(=O)N2C` [Compound 1], the IC50 [2] is given as 82 nM.
